Data from ChEMBL document CHEMBL1201862, “PubChem BioAssay data set” (2004).
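48-hour exposure; five concentrations; linearly interpolated endpoints. Here, GI50 denotes the concentration required for 50% inhibition of growth.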 Active and inactive are the calls of the source. No stated cut-off is given here; in the data, active = GI50 up to about 1.1 µM and inactive = higher.

Legend:
Assay in all cases: growth of human tumour cells (NCI), 48 h
[1] = tested on: ACHN
[2] = tested on: T47D
[3] = tested on: SK-OV-3
[4] = tested on: U-251
[5] = tested on: K562
[6] = tested on: HCT-15
[7] = tested on: SK-MEL-28
[8] = tested on: UACC-257
[9] = tested on: MOLT-4
[10] = tested on: Hs-578T
[11] = tested on: NCI-H23
[12] = tested on: A549
[13] = tested on: MDA-N
[14] = tested on: SW-620
[15] = tested on: SK-MEL-2
[16] = tested on: MDA-MB-435
[17] = tested on: EKVX
[18] = tested on: OVCAR-8
[19] = tested on: OVCAR-5
[20] = tested on: RXF 393

SMILES | GI50 [1] | GI50 [2] | GI50 [3] | GI50 [4] | GI50 [5] | GI50 [6] [µM] | GI50 [7] | GI50 [8] | GI50 [9] | GI50 [10] | GI50 [11] | GI50 [12] | GI50 [13] | GI50 [14] | GI50 [15] | GI50 [16] | GI50 [17] | GI50 [18] | GI50 [19] | GI50 [20]
OC1(c2ccc(-c3ccccc3)cc2)c2ccccc2C2=NCCN21 (stereo not drawn) | 20.6 µM (inactive) | 86.9 µM (inactive) | 86.3 µM (inactive) | 37.7 µM (inactive) | 70.5 µM (inactive) | 39.9 | 21.7 µM (inactive) | 36.1 µM (inactive) | 27.1 µM (inactive) | 22.4 µM (inactive) | 20.1 µM (inactive) | 84.9 µM (inactive) | > 100 µM (inactive) | 45.4 µM (inactive) | 3.61 µM (inactive) | 32.2 µM (inactive) | – | – | – | –
Cc1[nH]c2ccccc2c1-c1cc(-c2cc(-c3c(C)[nH]c4ccccc34)nc(N)n2)nc(N)n1 | > 100 µM (inactive) | > 100 µM (inactive) | > 100 µM (inactive) | > 100 µM (inactive) | > 100 µM (inactive) | > 100 | > 100 µM (inactive) | > 100 µM (inactive) | > 100 µM (inactive) | > 100 µM (inactive) | > 100 µM (inactive) | > 100 µM (inactive) | > 100 µM (inactive) | > 100 µM (inactive) | > 100 µM (inactive) | > 100 µM (inactive) | > 100 µM (inactive) | > 100 µM (inactive) | > 100 µM (inactive) | –
O=c1[nH]c(=O)n(COC(CO)CO)cc1-c1ccccc1 | > 100 µM (inactive) | > 100 µM (inactive) | > 100 µM (inactive) | > 100 µM (inactive) | > 100 µM (inactive) | > 100 | > 100 µM (inactive) | > 100 µM (inactive) | > 100 µM (inactive) | > 100 µM (inactive) | > 100 µM (inactive) | > 100 µM (inactive) | > 100 µM (inactive) | > 100 µM (inactive) | > 100 µM (inactive) | > 100 µM (inactive) | > 100 µM (inactive) | > 100 µM (inactive) | > 100 µM (inactive) | –
COc1c2cc(C(C)(C)C)cc1CSCc1cc(C(C)(C)C)cc(c1OC)CCCCC2 | 31.8 µM (inactive) | 30 µM (inactive) | > 50 µM (inactive) | 27 µM (inactive) | > 50 µM (inactive) | > 50 | 26.5 µM (inactive) | 13.3 µM (inactive) | 29.6 µM (inactive) | > 50 µM (inactive) | 36.7 µM (inactive) | 37.7 µM (inactive) | > 50 µM (inactive) | > 50 µM (inactive) | 25.1 µM (inactive) | > 50 µM (inactive) | – | 28.2 µM (inactive) | > 50 µM (inactive) | –
Cc1c(C)c(C)c(-n2[nH]c(=O)n(C)c2=O)c(C)c1C | > 100 µM (inactive) | > 100 µM (inactive) | > 100 µM (inactive) | > 100 µM (inactive) | > 100 µM (inactive) | > 100 | > 100 µM (inactive) | > 100 µM (inactive) | > 100 µM (inactive) | > 100 µM (inactive) | > 100 µM (inactive) | > 100 µM (inactive) | > 100 µM (inactive) | > 100 µM (inactive) | > 100 µM (inactive) | > 100 µM (inactive) | > 100 µM (inactive) | > 100 µM (inactive) | > 100 µM (inactive) | –
c1csc(-c2cc(-c3cccs3)c(-c3ccsc3)s2)c1 | > 100 µM (inactive) | 17.6 µM (inactive) | > 100 µM (inactive) | > 100 µM (inactive) | > 100 µM (inactive) | 19.2 | > 100 µM (inactive) | 58.1 µM (inactive) | > 100 µM (inactive) | > 100 µM (inactive) | > 100 µM (inactive) | > 100 µM (inactive) | > 100 µM (inactive) | > 100 µM (inactive) | > 100 µM (inactive) | > 100 µM (inactive) | > 100 µM (inactive) | > 100 µM (inactive) | – | –
CCOC(=O)C1=C(C#N)S(=O)(=O)c2c(oc(C)c2C)N1 | > 100 µM (inactive) | > 100 µM (inactive) | > 100 µM (inactive) | > 100 µM (inactive) | > 100 µM (inactive) | > 100 | > 100 µM (inactive) | > 100 µM (inactive) | > 100 µM (inactive) | > 100 µM (inactive) | > 100 µM (inactive) | > 100 µM (inactive) | > 100 µM (inactive) | > 100 µM (inactive) | > 100 µM (inactive) | > 100 µM (inactive) | > 100 µM (inactive) | > 100 µM (inactive) | > 100 µM (inactive) | –
C#CCNC(CCCNC(=N)N)C(=O)O (stereo not drawn) | > 100 µM (inactive) | > 100 µM (inactive) | > 100 µM (inactive) | > 100 µM (inactive) | > 100 µM (inactive) | > 100 | > 100 µM (inactive) | > 100 µM (inactive) | > 100 µM (inactive) | > 100 µM (inactive) | > 100 µM (inactive) | > 100 µM (inactive) | – | > 100 µM (inactive) | > 100 µM (inactive) | > 100 µM (inactive) | > 100 µM (inactive) | > 100 µM (inactive) | > 100 µM (inactive) | > 100 µM (inactive)
CC[C@]1(Cc2ccc(OC)c(OC)c2)C=[N+]([O-])O[C@H](OC2CCCC2(c2ccccc2)c2ccccc2)[C@@H]1OC(=O)C(C)(C)C (stereo partly drawn) | 2.33 µM (inactive) | 2.49 µM (inactive) | 15.2 µM (inactive) | 5.62 µM (inactive) | 3.61 µM (inactive) | 3.08 | 2.09 µM (inactive) | 3.5 µM (inactive) | 2.76 µM (inactive) | 2.72 µM (inactive) | 3.6 µM (inactive) | 3.11 µM (inactive) | – | 10.1 µM (inactive) | 2.66 µM (inactive) | 2.03 µM (inactive) | 4.61 µM (inactive) | 2.19 µM (inactive) | 8.71 µM (inactive) | 1.63 µM (inactive)
Cc1c2cccc-2c2cc(O)c3ccccc3c2n1-c1ccc(N(C)C)cc1 | 12.4 µM (inactive) | 0.304 µM (active) | 15.8 µM (inactive) | 13.2 µM (inactive) | 6.81 µM (inactive) | 5.37 | 17.2 µM (inactive) | 28.1 µM (inactive) | – | 15 µM (inactive) | 4.28 µM (inactive) | 14.6 µM (inactive) | 17 µM (inactive) | 20.7 µM (inactive) | 16.7 µM (inactive) | 13.1 µM (inactive) | 2.83 µM (inactive) | 15.9 µM (inactive) | 10.9 µM (inactive) | –
CCCc1cc2c(cc1O)CC[C@@H]1[C@@H]2CC[C@]2(C)[C@@H](O)CC[C@@H]12 | 12.9 µM (inactive) | 10.6 µM (inactive) | 14.6 µM (inactive) | 6.62 µM (inactive) | 3.17 µM (inactive) | 4.98 | 13.1 µM (inactive) | 13.1 µM (inactive) | 5.6 µM (inactive) | 10.1 µM (inactive) | 14.1 µM (inactive) | 10.6 µM (inactive) | 2.29 µM (inactive) | 3.95 µM (inactive) | 15.1 µM (inactive) | – | 12.7 µM (inactive) | 14.4 µM (inactive) | 19.5 µM (inactive) | 10.2 µM (inactive)
